Values of other authors in patent US7799547B2, “Purified polypeptides from Staphylococcus aureus” (Affinium Pharmaceuticals, Inc., priority 2003, dated 2010).

Tests used:
MRSA strain WCUH29 = settings: rat, oral administration at 50 mg/kg
[1] = system: panel of clinical isolates of S. aureus; settings: clinical isolates of S. aureus resistant to different classes of antibiotics
E. coli FabI = E. coli FabI (Escherichia coli, UniProt P0AEK4)
S. aureus FabI = S. aureus FabI (Staphylococcus aureus, UniProt Q6GI75)
S. aureus FabI, sequence (Q6GI75 whole entry): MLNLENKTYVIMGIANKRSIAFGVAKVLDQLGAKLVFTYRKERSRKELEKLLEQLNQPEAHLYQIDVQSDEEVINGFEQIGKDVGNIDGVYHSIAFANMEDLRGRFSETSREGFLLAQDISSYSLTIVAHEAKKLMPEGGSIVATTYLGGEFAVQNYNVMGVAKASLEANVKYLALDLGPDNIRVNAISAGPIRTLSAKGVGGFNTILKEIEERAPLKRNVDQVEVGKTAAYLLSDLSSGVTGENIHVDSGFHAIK

E. coli FabI, sequence (P0AEK4 whole entry): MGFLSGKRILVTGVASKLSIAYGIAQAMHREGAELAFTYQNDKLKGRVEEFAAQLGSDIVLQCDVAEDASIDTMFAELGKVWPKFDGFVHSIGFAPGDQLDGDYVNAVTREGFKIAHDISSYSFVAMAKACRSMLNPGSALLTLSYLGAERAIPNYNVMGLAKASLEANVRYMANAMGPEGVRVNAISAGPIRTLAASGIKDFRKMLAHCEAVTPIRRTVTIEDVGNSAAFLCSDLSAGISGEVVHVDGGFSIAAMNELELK

SMILES | Reduction in bacterial counts relative to untreated controls (MRSA strain WCUH29) | MIC90 fold lower than those of the commercial antibiotics tested [1] | Inhibition of E. coli FabI (E. coli FabI) | Inhibition of S. aureus FabI (S. aureus FabI)
Cc1[nH]c2ccccc2c1CN(C)C(=O)/C=C/c1cnc2c(c1)CCC(=O)N2 [API-1135] | 3.5 log | > 500 fold | – | –
Oc1c(Cl)cc(Cl)c(Cl)c1Cc1c(O)c(Cl)cc(Cl)c1Cl [hexachlorophene] | – | – | inhibited | inhibited
Oc1cc(Cl)ccc1Oc1ccc(Cl)cc1Cl [triclosan] | – | – | inhibited | inhibited
